Measurements: patent US20250154138A1, “Small Molecule IL-17A Modulators” (BeiGene, Ltd., priority 2022, published 2025)

Target: human IL-17A / human IL-17RA (Homo sapiens (Human), UniProt Q16552)
Experiment: Human IL-17A biochemical assay (HTRF, blocking of IL-17A binding to IL-17RA)
Details: 0.4 nM IL-17A, 0.3 nM IL-17RA, max compound concentration 10 uM
Protocol: Compounds disclosed herein were tested for blocking of human IL-17A (Cat: C774, novoprotein) protein with its receptor human IL-17RA (Cat: C153, novoprotein) in an assay based on Homogeneous Time Resolved Fluorescence. 0.4 nM recombinant human IL-17A protein was pre-incubated with a serial dilution of compounds disclosed herein (maximum concentration is 10 uM, 2.7-fold serially diluted, 10 points) at room temperature for 3 hours in an assay buffer containing 20 mM HEPES, pH 7.5, 50 mM NaCl, 0.1% BSA, 0.2 mM DTT, 0.005% Tween 20. Then 0.3 nM recombinant human IL-17RA was added to plate and further incubated at room temperature for 1 hour. After that Mab Anti-6His Tb cryptate Gold (Cat: 61HI2TLB, Cisbio Bioassays) and MAb Anti Human IgG-XL665 (Cat: 61HFCXLB, Cisbio Bioassays) were added to plate and further incubated at room temperature for 1 hour. The HTRF signals (ex337 nm, em620 nm/665 nm) were read on BMG PHERAstar FSX instrument. The inhibition percentage of human IL-17A interaction with its receptor human IL-17RA in presence of increasing concentrations of compounds was calculated based on the ratio of […]. The IC50 for each compound was derived from fitting the data to the four-parameter logistic equation by Dotmatics.

human IL-17A / human IL-17RA, sequence (Q16552 24-155): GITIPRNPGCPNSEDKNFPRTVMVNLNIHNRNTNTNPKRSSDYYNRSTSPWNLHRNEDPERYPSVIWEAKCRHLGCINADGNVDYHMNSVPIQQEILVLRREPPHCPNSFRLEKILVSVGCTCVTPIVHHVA

| SMILES | IC50 |
| --- | --- |
| CNC(=O)C1(N2C[C@@H](C(C)C)NC2=O)Cc2ccc(NC(=O)C(Cc3cc(Cl)ccc3Cl)NC(=O)c3ccnn3C)cc2C1 (stereo partly drawn) [Example 127, N-(3-(2,5-dichlorophenyl)-1-((2-((R)-4-isopropyl-2-oxoimidazolidin-1-yl)-2-(methylcarbamoyl)-2,3-dihydro-1H-inden-5-yl)amino)-1-oxopropan-2-yl)-1-methyl-1H-pyrazole-5-carboxamide] | 698 nM |
| CNC(=O)C1(N2CC(C)NC2=O)CCc2ccc(NC(=O)[C@@H](NC(=O)c3ccnn3C)C3CCCCC3)cc2CC1 (stereo partly drawn) [Example 7, N-((1S)-1-cyclohexyl-2-((7-(4-methyl-2-oxoimidazolidin-1-yl)-7-(methylcarbamoyl)-6,7,8,9-tetrahydro-5H-benzo[7]annulen-2-yl)amino)-2-oxoethyl)-1-methyl-1H-pyrazole-5-carboxamide] | 51000 nM |
| CNC(=O)C1Cc2ccc(NC(=O)[C@@H](NC(=O)c3ccnn3C)C3CCCCC3)cc2C1 (stereo partly drawn) [Example 4, N-((1S)-1-cyclohexyl-2-((2-(methylcarbamoyl)-2,3-dihydro-1H-inden-5-yl)amino)-2-oxoethyl)-1-methyl-1H-pyrazole-5-carboxamide] | > 10000 nM |
| CNC(=O)C1(N2CC(c3ccccc3)NC2=O)Cc2ccc(NC(=O)[C@@H](NC(=O)c3ccnn3C)C3CCCCC3)cc2C1 (stereo partly drawn) [Example 36, N-((1S)-1-cyclohexyl-2-((2-(methylcarbamoyl)-2-(2-oxo-4-phenylimidazolidin-1-yl)-2,3-dihydro-1H-inden-5-yl)amino)-2-oxoethyl)-1-methyl-1H-pyrazole-5-carboxamide] | 2430 nM |
| CNC(=O)C1(N2CC(C)NC2=O)Cc2ccc(NC(=O)[C@H](CC3CCCCC3)NC(=O)c3ccnn3C)cc2C1 (stereo partly drawn) [Example 16, N-((2S)-3-cyclohexyl-1-((2-(4-methyl-2-oxoimidazolidin-1-yl)-2-(methylcarbamoyl)-2,3-dihydro-1H-inden-5-yl)amino)-1-oxopropan-2-yl)-1-methyl-1H-pyrazole-5-carboxamide] | 5000 nM |
| CC[C@H]1CN(C2(C(=O)NC)Cc3cc4nc([C@@H](NC(=O)c5nonc5C)C5CCCCC5)[nH]c4cc3C2)C(=O)N1 [Example 33, N-((1S)-cyclohexyl(6-((S)-4-ethyl-2-oxoimidazolidin-1-yl)-6-(methylcarbamoyl)-1,5,6,7-tetrahydroindeno[5,6-d]imidazol-2-yl)methyl)-4-methyl-1,2,5-oxadiazole-3-carboxamide] | 2040 nM |
| CNC(=O)C1(N2CC(C(C)(C)O)NC2=O)Cc2ccc(NC(=O)[C@@H](NC(=O)c3ccnn3C)C3CCCCC3)cc2C1 (stereo partly drawn) [Example 42, N-((1S)-1-cyclohexyl-2-((2-(4-(2-hydroxypropan-2-yl)-2-oxoimidazolidin-1-yl)-2-(methylcarbamoyl)-2,3-dihydro-1H-inden-5-yl)amino)-2-oxoethyl)-1-methyl-1H-pyrazole-5-carboxamide] | 3170 nM |
| Cc1nonc1C(=O)N[C@H](C(=O)Nc1ccc2c(c1)CC(C(=O)Nc1ccc(C3CC3)cc1Cl)(N1C[C@@H](C(C)C)NC1=O)C2)C(C1CC1)C1CC1 (stereo partly drawn) [Example 267, N-((2S)-1-((2-((2-chloro-4-cyclopropylphenyl)carbamoyl)-2-((R)-4-isopropyl-2-oxoimidazolidin-1-yl)-2,3-dihydro-1H-inden-5-yl)amino)-3,3-dicyclopropyl-1-oxopropan-2-yl)-4-methyl-1,2,5-oxadiazole-3-carboxamide] | > 10000 nM |
| CNC(=O)C1(N2C[C@@H](C(C)C)NC2=O)Cc2ccc(NC(=O)[C@@H](NC(=O)c3ncnn3C)C3CCCCC3)cc2C1 (stereo partly drawn) [Example 64, N-((1S)-1-cyclohexyl-2-((2-((R)-4-isopropyl-2-oxoimidazolidin-1-yl)-2-(methylcarbamoyl)-2,3-dihydro-1H-inden-5-yl)amino)-2-oxoethyl)-1-methyl-1H-1,2,4-triazole-5-carboxamide] | 1820 nM |
| CNC(=O)C1(N2CCCNC2=O)Cc2ccc(NC(=O)[C@@H](NC(=O)c3ccnn3C)C3CCCCC3)cc2C1 (stereo partly drawn) [Example 134, N-((1S)-1-cyclohexyl-2-((2-(methylcarbamoyl)-2-(2-oxotetrahydropyrimidin-1(2H)-yl)-2,3-dihydro-1H-inden-5-yl)amino)-2-oxoethyl)-1-methyl-1H-pyrazole-5-carboxamide] | 311 nM |
| CC1CN(CC2Cc3ccc(NC(=O)[C@@H](NC(=O)c4ccnn4C)C4CCCCC4)cc3O2)C(=O)N1 (stereo partly drawn) [Example 21, N-((1S)-1-cyclohexyl-2-((2-((4-methyl-2-oxoimidazolidin-1-yl)methyl)-2,3-dihydrobenzofuran-6-yl)amino)-2-oxoethyl)-1-methyl-1H-pyrazole-5-carboxamide] | 2400 nM |
| CNC(=O)C1(N2CC(Cc3ccc(C#N)cc3)NC2=O)Cc2ccc(NC(=O)[C@@H](NC(=O)c3ccnn3C)C3CCCCC3)cc2C1 (stereo partly drawn) [Example 140, N-((1S)-2-((2-(4-(4-cyanobenzyl)-2-oxoimidazolidin-1-yl)-2-(methylcarbamoyl)-2,3-dihydro-1H-inden-5-yl)amino)-1-cyclohexyl-2-oxoethyl)-1-methyl-1H-pyrazole-5-carboxamide] | 277 nM |
| CNC(=O)C1(N2C[C@@H](C(C)C)NC2=O)Cc2ccc(NC(=O)[C@@H](NC(=O)CCc3ccccc3)C3CCCCC3)cc2C1 (stereo partly drawn) [Example 52, 5-((S)-2-cyclohexyl-2-(3-phenylpropanamido)acetamido)-2-((R)-4-isopropyl-2-oxoimidazolidin-1-yl)-N-methyl-2,3-dihydro-1H-indene-2-carboxamide] | 1310 nM |
| CNC(=O)C1(N2CC(C)NC2=O)CCc2cc(NC(=O)[C@@H](NC(=O)c3ccnn3C)C3CCCCC3)ccc21 (stereo partly drawn) [Example 8, N-((1S)-1-cyclohexyl-2-((1-(4-methyl-2-oxoimidazolidin-1-yl)-1-(methylcarbamoyl)-2,3-dihydro-1H-inden-5-yl)amino)-2-oxoethyl)-1-methyl-1H-pyrazole-5-carboxamide] | > 10000 nM |
| CNC(=O)C1(N2CC(C3CCOC3)NC2=O)Cc2ccc(NC(=O)[C@@H](NC(=O)c3ccnn3C)C3CCCCC3)cc2C1 (stereo partly drawn) [Example 34, N-((1S)-1-cyclohexyl-2-((2-(methylcarbamoyl)-2-(2-oxo-4-(tetrahydrofuran-3-yl)imidazolidin-1-yl)-2,3-dihydro-1H-inden-5-yl)amino)-2-oxoethyl)-1-methyl-1H-pyrazole-5-carboxamide] | 8400 nM |
| CNC(=O)C1(N2C[C@@H](C3CCCCC3)NC2=O)Cc2ccc(NC(=O)[C@@H](NC(=O)c3ccnn3C)C3CCCCC3)cc2C1 (stereo partly drawn) [Example 25, N-((1S)-1-cyclohexyl-2-((2-((R)-4-cyclohexyl-2-oxoimidazolidin-1-yl)-2-(methylcarbamoyl)-2,3-dihydro-1H-inden-5-yl)amino)-2-oxoethyl)-1-methyl-1H-pyrazole-5-carboxamide] | 6300 nM |
| CNC(=O)C1(N2CC(CC(C)C)NC2=O)Cc2ccc(NC(=O)[C@@H](NC(=O)c3ccnn3C)C3CCCCC3)cc2C1 (stereo partly drawn) [Example 24, N-((1S)-1-cyclohexyl-2-((2-(4-isobutyl-2-oxoimidazolidin-1-yl)-2-(methylcarbamoyl)-2,3-dihydro-1H-inden-5-yl)amino)-2-oxoethyl)-1-methyl-1H-pyrazole-5-carboxamide] | 2340 nM |
